Measured values as given in US20190142953A1, “Dendrimer-Drug Conjugates, Hydrogel Compositions, and Methods” (Massachusetts Institute of Technology, priority 2016, published 2019).

Experiments:
[1] = In vivo organ distribution after systemic and local delivery; set-up: species or system mice
Description: An analysis was conducted of the organ distribution of both the dendritic pro-drugs and free doxorubicin after local and systemic administration. Fluorescently labelled dendritic pro-drugs of Example 5 or free drug were injected systemically and their distributions were assessed after 24 hours.

[2] = system: healthy mammary epithelial cells; test: Cytocidal effect in healthy cells; assay type: cell-based; settings: equivalent free doxorubicin concentration
From the text: The next question studied was whether conjugated doxorubicin still maintained its cytotoxic effect.

[3] = system: triple negative breast cancer (TNBC); test: In vivo therapeutic efficacy, murine model of triple negative breast cancer
[4] = Release from dendrimer:dextran hydrogel scaffold; assay type: physicochemical
From the text: The hydrogel matrix included a 10% solid content PAMAM dendrimer, generation 5, with 75% of the amines of its surface groups oxidized to alcohols (i.e., 32 amines and 96 alcohols), and a 10% solid content dextran aldehyde (10 kDa weight average molecule weight, with 50% oxidation to aldehydes).
Free doxorubicin was released in approximately 6 days, owing to the interactions between amine groups in the drug and aldehyde groups in the dextran. When amines in the doxorubicin structure were blocked with aconitic anhydride, the drug was released rapidly through the large pores of the hydrogel in 48 hours.

EGFR [5] = molecular target: T1, EGFR (Homo sapiens, UniProt P00533); test: EGF/EGFmp competition for the receptor, EGFR activation by Western Blot; assay type: cell-based; settings: mix of EGF and peptide, EGFR-overexpressing cancer cells
T1 construct: endogenous in cells; host or cells: MDA-MB-468

EGFR [6] = molecular target: T1, EGFR; test: EGFR pathway activation (EGFR phosphorylation) by Western Blot; assay type: cell-based
From the text: EGFR signaling pathway is believed to induce growth, differentiation, migration, adhesion, and cell survival through various interacting signaling pathways. It is believed to be critical for the design of chemotherapeutic pro-drugs utilizing this receptor to ensure this pathway was not triggered, leading to further cancer cell proliferation and survival, which could counteract the effects of the chemotherapeutic drug.
Actin was used as an internal control in all gels.

[7] = local in hydrogel scaffold, 72-hour post-implantation

COc1cccc2c1C(=O)c1c(O)c3c(c(O)c1C2=O)C[C@@](O)(C(=O)CO)C[C@@H]3O[C@H]1C[C@H](N)[C@H](O)[C@H](C)O1 [free doxorubicin, doxorubicin]
circulating level in blood ([1]; after local delivery): No circulating drug or dendritic pro-drug were observed in the blood
level in blood (fluorescence) ([1]; after systemic administration): not statistically different than that of the untreated control
accumulation in other organs [1, 7]: no accumulation was observed in other organs
tumor accumulation, local therapy versus systemic administration [1, 7]: 5 times
accumulation in other organs (spleen, heart, lungs, liver, kidneys) ([1]; systemic injection, 24 hours): no significant accumulation was observed in any other organ
cell death [2]: over 90%
tumor shrinkage compared to untreated control ([3]; local in hydrogel, multiple doses (days 0, 11, 22), bioluminescence): 69%
tumor reduction compared to untreated control ([3]; systemic administration): did not exhibit significant tumor volume reduction
time to release from hydrogel [4]: approximately 6 days

NH2—CGGGGAEYLR-COOH (H-CGGGGAEYLR-OH) [EGFmp, EGF mimicking peptide modified with four glycine residues terminated with a cysteine]
blocking of EGF-mediated EGFR activation (EGFR [5]): did not behave as an EGF antagonist
EGFR phosphorylation / pathway activation (EGFR [6]): none were observed
